Values quoted from earlier work, collected in patent US8022220B2, “Process for production of piperidine derivatives” (Albany Molecular Research, Inc., priority 1995, dated 2011).

System: delayed rectifier potassium current
Details: concentrations up to 5 μM; isolated feline ventricular myocytes

CC(C)(C(=O)O)c1ccc(C(O)CCCN2CCC(C(O)(c3ccccc3)c3ccccc3)CC2)cc1 (stereo not drawn) [terfenadine carboxylic acid metabolite, 4-[4-[4-(hydroxydiphenylmethyl)-1-piperidinyl]-1-hydroxybutyl]-α-α-dimethylphenylacetic acid]
effect on the potassium current: no significant effect
